The results in this text go back to patent publication US6831084B1, “Branched adamantyl and noradamantyl aryl- and aralkylpiperazines with serotonin 5-HT1A activity” (Wyeth, priority 1999, dated 2004).

The target of data set [1] is T1, serotonin 5-HT1A receptor (Rattus norvegicus, UniProt P19327).
T1 construct: in rat hippocampal membrane homogenates; from tissue; host or cells: rat hippocampus (membrane homogenates)
T1 sequence (P19327 1-422): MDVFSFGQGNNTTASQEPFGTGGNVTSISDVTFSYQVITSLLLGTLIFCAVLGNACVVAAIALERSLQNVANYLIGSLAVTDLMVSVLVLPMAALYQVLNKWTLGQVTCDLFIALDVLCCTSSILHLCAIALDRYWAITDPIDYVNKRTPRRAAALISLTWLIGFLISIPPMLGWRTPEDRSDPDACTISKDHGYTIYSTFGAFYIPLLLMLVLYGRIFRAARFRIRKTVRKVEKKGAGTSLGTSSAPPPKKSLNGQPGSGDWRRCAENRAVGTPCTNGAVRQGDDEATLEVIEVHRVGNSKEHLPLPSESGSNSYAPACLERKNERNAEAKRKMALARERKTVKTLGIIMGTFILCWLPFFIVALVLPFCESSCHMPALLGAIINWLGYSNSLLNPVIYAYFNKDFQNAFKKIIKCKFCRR
In words: Displacement of [3H]-8-OH-DPAT from 5-HT1A receptor in rat hippocampal membrane homogenates. It is filed as binding. Particulars: [3H]-8-OH-DPAT displacement, read-out: 5-HT1A Affinity (IC50). An excerpt: Affinity for the serotonin 5-HT1A receptor was established by assaying the test compound's ability to displace [^3H]-8-OH-DPAT from its binding site on the receptor complex in rat hippocampal membrane homogenates according to the method described in U.S. Pat. No. 5,482,940.
In general terms: In a radioligand displacement assay an active substance lowers the binding of a labelled ligand.

The target of data set [2] is T2, human 5-HT1A receptor (Homo sapiens, UniProt P08908).
T2 construct: expressed in transfected cells; host or cells: CHO cells, stably transfected
T2 sequence (P08908 1-422): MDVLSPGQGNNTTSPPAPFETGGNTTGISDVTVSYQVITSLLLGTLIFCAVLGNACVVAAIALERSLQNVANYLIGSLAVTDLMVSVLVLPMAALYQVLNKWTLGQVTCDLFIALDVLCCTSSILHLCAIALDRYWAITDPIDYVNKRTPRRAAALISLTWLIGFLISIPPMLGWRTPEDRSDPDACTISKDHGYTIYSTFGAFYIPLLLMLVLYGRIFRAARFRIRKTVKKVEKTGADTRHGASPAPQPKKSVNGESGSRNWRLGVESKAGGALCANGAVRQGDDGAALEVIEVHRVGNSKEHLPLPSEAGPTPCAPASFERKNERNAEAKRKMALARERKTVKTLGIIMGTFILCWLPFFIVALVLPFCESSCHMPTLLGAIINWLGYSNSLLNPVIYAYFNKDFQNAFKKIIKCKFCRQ
Nature of the data set: Block of 8-OH-DPAT-induced stimulation of [35S]-GTPγS binding (5-HT1A antagonist activity) in CHO cells stably transfected with human 5-HT1A receptor. The conditions noted are these: block of 8-OH-DPAT-induced [35S]-GTPγS binding. It is filed as biochemical. (GTPγS is a poorly hydrolysed GTP analogue; its binding reports G protein activation.)

Data set [3] concerns the target T2, human 5-HT1A receptor. In words: Stimulation of [35S]-GTPγS binding (5-HT1A agonist activity) in CHO cells stably transfected with human 5-HT1A receptor. In kind it is biochemical. The conditions noted are these: for 5-HT1A Agonist Activity (GTPγS) % Agonist Activity: relative to the effect of the 5-HT1A full agonist 8-OH-DPAT. An excerpt:
Data are presented as the percent of
agonist activity observed relative to the effect obtained with the 5-HT1A full agonist 8-OH-DPAT and the corresponding EC50 value.

Structures can show the parent of a compound that is named as a salt.

What is called melting point is the temperature of the solid-liquid transition. `O=C(N[C@H](Cc1ccccc1)CN1CCN(Cc2ccccc2)CC1)C12CC3CC(CC(C3)C1)C2` (as salt: hydrochloride) (hydrate or solvate) [Example 1, (R)-N-[1-(Phenylmethyl)-2-[4-(phenylmethyl)-1-piperazinyl]ethyl]tricyclo[3.3.1.1^3,7)]-decane-1-carboxamide Dihydrochloride Dihydrate] showed a melting point of 261 to 263 °C.
Same read-out and setting: then `O=C(N[C@@H](Cc1ccccc1)CN1CCN(Cc2ccccc2)CC1)C12CC3CC(CC(C3)C1)C2` (as salt: hydrochloride) (hydrate or solvate) [Example 2, (S)-N-[1-(Phenylmethyl)-2-[4-(phenylmethyl)-1-piperazinyl]ethyl]tricyclo[3.3.1.1^3,7)]-decane-1-carboxamide Dihydrochloride Dihydrate], with 263 to 266 °C; and `O=C(N[C@H](Cc1ccccc1)CN1CCN(c2ncccn2)CC1)C12CC3CC(CC(C3)C1)C2` (hydrate or solvate) [Example 3, (R)-N-[1-(Phenylmethyl)-2-[4-(2-pyrimidinyl)-1-piperazinyl]ethyl]tricyclo[3.3.1.1^3,7)]-decane-1-carboxamide Hemihydrate], with 172 to 175 °C.
Broadly, the IC50 is the concentration needed to halve the response being measured. What is called EC50 is the concentration giving half of the maximal effect. Lower therefore signals a more potent agent. Take `O=C(N[C@H](Cc1ccccc1)CN1CCN(Cc2ccccc2)CC1)C12CC3CC(CC(C3)C1)C2` [Example 1, (R)-N-[1-(Phenylmethyl)-2-[4-(phenylmethyl)-1-piperazinyl]ethyl]tricyclo[3.3.1.1^3,7)]-decane-1-carboxamide Dihydrochloride Dihydrate]: the half-inhibitory concentration (IC50) in data set [1] worked out at 2.3 nM. In addition, on human 5-HT1A receptor [2], the “5-HT1A Antagonist Activity (GTPγS) % Antagonist Activity” value was found to be 100% and the EC50 is 36 nM.
Turning to `O=C(N[C@@H](Cc1ccccc1)CN1CCN(Cc2ccccc2)CC1)C12CC3CC(CC(C3)C1)C2` [Example 2, (S)-N-[1-(Phenylmethyl)-2-[4-(phenylmethyl)-1-piperazinyl]ethyl]tricyclo[3.3.1.1^3,7)]-decane-1-carboxamide Dihydrochloride Dihydrate], the 50% inhibitory concentration (IC50) in data set [1] worked out at 0.7 nM. In addition, at human 5-HT1A receptor [3], a half-maximal effect (EC50) was put at 21 nM and the “5-HT1A Agonist Activity (GTPγS) % Agonist Activity” value is 51%.
In the case of `O=C(N[C@H](Cc1ccccc1)CN1CCN(c2ncccn2)CC1)C12CC3CC(CC(C3)C1)C2` [Example 3, (R)-N-[1-(Phenylmethyl)-2-[4-(2-pyrimidinyl)-1-piperazinyl]ethyl]tricyclo[3.3.1.1^3,7)]-decane-1-carboxamide Hemihydrate], the IC50 in data set [1] is 0.43 nM. At human 5-HT1A receptor [3], the concentration giving a half-maximal response (EC50) was 2 nM and the “5-HT1A Agonist Activity (GTPγS) % Agonist Activity” value is listed as 100%.
In turn, `O=C(N[C@@H](Cc1ccccc1)CN1CCN(c2ncccn2)CC1)C12CC3CC(CC(C3)C1)C2` [Example 4] displayed a melting point of 172 to 175 °C. Further, the IC50 in data set [1] turned out to be 1 nM. For the same compound, at human 5-HT1A receptor [3], the EC50 came out at 2.4 nM and the “5-HT1A Agonist Activity (GTPγS) % Agonist Activity” value is recorded as 99%.
On to `Cl.Cl.O.O.O=C(N[C@@H](COCc1ccccc1)CN1CCN(Cc2ccccc2)CC1)C12CC3CC(CC(C3)C1)C2` [Example 5, (R)-N-[1-((Phenylmethoxy)methyl)-2-[4-(phenylmethyl)-1-piperazinyl]ethyl]tricyclo-[3.3.1.1^3,7)]-decane-1-carboxamide Dihydrochloride Dihydrate], for which the IC50 in data set [1] worked out at 62 nM. At human 5-HT1A receptor [3], this compound gave a 50% effective concentration (EC50) of 77 nM.
As to `Cl.Cl.O.O.O=C(N[C@@H](COCc1ccccc1)CN1CCN(Cc2ccccc2)CC1)C12CC3CC(CC(C3)C1)C2` [Example 5], at human 5-HT1A receptor [3], the “5-HT1A Agonist Activity (GTPγS) % Agonist Activity” value is on record as 49%.
`COc1ccccc1N1CCN(C[C@@H](Cc2ccccc2)NC(=O)C23CC4CC(CC(C4)C2)C3)CC1.COc1ccccc1N1CCN(C[C@@H](Cc2ccccc2)NC(=O)C23CC4CC(CC(C4)C2)C3)CC1.O.O=C(O)/C=C/C(=O)O` [Example 6, (R)-Adamantane-1-carboxylic acid [1-(phenylmethyl)-2-[4-(2-methoxyphenyl)-piperazinyl]ethyl]-amide Hemifumarate Hemihydrate]: in data set [1], the 50% inhibitory concentration (IC50) turned out to be 0.21 nM. The “5-HT1A Agonist Activity (GTPγS) % Agonist Activity” value on human 5-HT1A receptor [3] came to 76%.
The like results for `COc1ccccc1N1CCN(C[C@H](Cc2ccccc2)NC(=O)C23CC4CC(CC(C4)C2)C3)CC1.COc1ccccc1N1CCN(C[C@H](Cc2ccccc2)NC(=O)C23CC4CC(CC(C4)C2)C3)CC1.O.O.O=C(O)/C=C/C(=O)O` [Example 7, (S)-Adamantane-1-carboxylic acid [1-(phenylmethyl)-2-[4-(2-methoxyphenyl)-piperazinyl]ethyl]-amide Hemifumarate Hydrate] were, in that order, 0.7 nM and 85%.
